Experimental data published in patent US20150136233A1, “ORGANIC PHOTOVOLTAIC DEVICES COMPRISING FULLERENES AND DERIVATIVES” (The Regents of the University of California, priority 2013, published 2015).

Columns and labels:
[1] = LUMO energy level by cyclic voltammetry; type: physicochemical; conditions: for LUMO Energy Level: cyclic voltammetry, onset of first reduction, ferrocene internal reference, o-dichlorobenzene/acetonitrile 4:1
Procedure: The electronic property of the synthesized fullerenes are characterized by cyclic voltammetry (CV) using a Bio-Logic Multi-channel Potentiostat with Pt as a counter electrode, Ag/Ag+ as a reference electrode and ferrocene as an internal reference, with 4:1 v/v ratio of o-dichlorobenzene and acetonitrile as solvent and 0.1 M tetrabutylammonium hexafluorophosphate as electrolyte at a scan rate of 100 mV/s. […] The LUMO levels are calculated according to the following equation 2 using the onset of the first reduction. The data are listed in Table 2, LUMOs of C60, C70, PCBM, Bis-PCBM, ICMA and ICBA were measured under the same condition and listed too as reference.
ELUMO=[(EFLN(Vs Ag/Ag+)(E^1/2Ferrocene(Vs Ag/Ag+)]−4.8 eV (equation 2)

[2] = references [15, 18]; cited from earlier work

| Compound | LUMO increase compared to pristine C60 [1] | LUMO Energy Level [1] | LUMO higher than that of PCBM [1] | LUMO of bis-addition fullerene higher than LUMO of the mono-addition fullerene (PCBM, ICMA respectively) [2] |
| --- | --- | --- | --- | --- |
| 1′,4′-dihydro-naphtho[2′,3′:1,2][5,6]fullerene-C60 [IC60MA] | about 0.1 eV | −3.76 eV | – | – |
| COC(=O)CCCC1(c2ccccc2)C23c4c5c6c7c8c9c(c%10c%11c2c2c%12c4c4c%13c5c5c7c7c8c8c%14c9c%10c9c%10c%11c2c2c%11c%12c4c4c%12c%13c5c5c7c7c8c8c%14c9c9c%10c2c2c%11c4c4c%12c5c7c5c8c9c2c45)C613 (stereo not shown) [PC61BM, [6,6]-phenyl C61-butyric acid methyl ester] | about 0.1 eV | −3.80 eV | – | – |
| bis(1-[3-(methoxycarbonyl)propyl]-1-phenyl)[6.6]C62 [Bis-PC61BM] | – | −3.72 eV | 0.1 eV | about 0.1 eV |
